Source: patent US7772271B2 (priority 2004, dated 2010)

SMILES	melting point
N#Cc1c(-c2ccc(Nc3cccc(OC(F)(F)F)c3)cc2)n(C2CCC2)c2cc(OC3CCOCC3)ccc12 [Compound 3129]	108 to 110 °C
COCCOc1ccc2c(C#N)c(-c3ccc(C(=O)N[C@@H](C)c4ccccc4)cc3)n(C3CCC3)c2c1 [Compound 3131]	149 to 152 °C
COCCOc1ccc2c(C#N)c(-c3ccc(C(=O)N[C@H](C)c4ccc(F)cc4)cc3)n(C3CCC3)c2c1 [Compound 3132]	169 to 170 °C
COCCOc1ccc2c(C#N)c(-c3ccc(C(=O)N[C@H](C)c4ccc(OC)cc4)cc3)n(C3CCC3)c2c1 [Compound 3133]	156 to 157 °C
COCCOc1ccc2c(C#N)c(-c3ccc(C(=O)NCc4ccc(F)cc4)cc3)n(C3CCC3)c2c1 [Compound 3134]	154 to 160 °C
CCN(CC)C(=O)c1ccc2c(c1)c(C#N)c(-c1ccc(NC(=O)NC(C)C)cc1)n2C1CCC1 [Compound 3136]	250 °C (dec.)
CCN(CC)C(=O)c1ccc2c(c1)c(C#N)c(-c1ccc(NC(=O)OC(C)C)cc1)n2C1CCC1 [Compound 3145]	225 to 226 °C
CC(C)OC(=O)Nc1ccc(-c2c(C#N)c3cc(C(=O)N(C)C)ccc3n2C2CCC2)cc1 [Compound 3146]	136 to 138 °C
CC(C)OC(=O)Nc1ccc(-c2c(C#N)c3cc(C(=O)N4CCCC4)ccc3n2C2CCC2)cc1 [Compound 3148]	204 to 205 °C
N#Cc1c(-c2ccc(NC3=NC(O)(C(F)(F)F)CS3)cc2)n(C2CCC2)c2cc(OC3CCOCC3)ccc12 (centres unmarked) [Compound 3150]	136 to 138 °C
CC(C)(C)c1csc(Nc2ccc(-c3c(C#N)c4ccc(OC5CCOCC5)cc4n3C3CCC3)cc2)n1 [Compound 3151]	246 to 248 °C
Cc1csc(Nc2ccc(-c3c(C#N)c4ccc(OC5CCOCC5)cc4n3C3CCC3)cc2)n1 [Compound 3152]	215 to 217 °C
N#Cc1c(-c2ccc(Nc3nc(-c4ccc(F)cc4)cs3)cc2)n(C2CCC2)c2cc(OC3CCOCC3)ccc12 [Compound 3153]	269 to 271 °C
N#Cc1c(-c2ccc(Nc3ccc(F)c(C(F)(F)F)c3)cc2)n(C2CCC2)c2cc(OC3CCOCC3)ccc12 [Compound 3156]	168 to 169 °C
N#Cc1c(-c2ccc(NC(=S)NC3CCCC3)cc2)n(C2CCC2)c2cc(OC3CCOCC3)ccc12 [Compound 3157]	137 to 138 °C
CC(C)NC(=S)Nc1ccc(-c2c(C#N)c3ccc(OC4CCOCC4)cc3n2C2CCC2)cc1 [Compound 3158]	129 to 130 °C
COc1ccc(Nc2ccc(-c3c(C#N)c4ccc(OC5CCOCC5)cc4n3C3CCC3)cc2)cc1C [Compound 3159]	195 to 201 °C
N#Cc1c(-c2ccc(Nc3ccccc3Cl)cc2)n(C2CCC2)c2cc(OC3CCOCC3)ccc12 [Compound 3160]	125 to 128 °C
Cc1cc(Cl)ccc1Nc1ccc(-c2c(C#N)c3ccc(OC4CCOCC4)cc3n2C2CCC2)cc1 [Compound 3161]	174 to 179 °C
CC(=O)c1cccc(Nc2ccc(-c3c(C#N)c4ccc(OC5CCOCC5)cc4n3C3CCC3)cc2)c1 [Compound 3162]	148 to 152 °C
N#Cc1c(-c2ccc(Nc3ccccn3)cc2)n(C2CCC2)c2cc(OC3CCOCC3)ccc12 [Compound 3163]	211 to 212 °C

SMILES	melting point
N#Cc1c(-c2ccc(Nc3cccnc3)cc2)n(C2CCC2)c2cc(OC3CCOCC3)ccc12 [Compound 3165]	210 to 212 °C
N#Cc1c(-c2ccc(Nc3ncccn3)cc2)n(C2CCC2)c2cc(OC3CCOCC3)ccc12 [Compound 3166]	209 to 213 °C
N#Cc1c(-c2ccc(Oc3ncccn3)cc2)n(C2CCC2)c2cc(OC3CCOCC3)ccc12 [Compound 3167]	168 to 169 °C
N#Cc1c(-c2ccc(Oc3cnccn3)cc2)n(C2CCC2)c2cc(OC3CCOCC3)ccc12 [Compound 3168]	167 to 170 °C
N#Cc1c(-c2ccc(Oc3ccccn3)cc2)n(C2CCC2)c2cc(OC3CCOCC3)ccc12 [Compound 3169]	147 to 149 °C
CCNC(=O)Oc1ccc2c(C#N)c(-c3ccc(NC(=O)O[C@H](C)C4CC4)cc3)n(C3CCC3)c2c1 [Compound 3170]	192 to 194 °C
C[C@@H](OC(=O)Nc1ccc(-c2c(C#N)c3ccc(OC(=O)NC4CCCCC4)cc3n2C2CCC2)cc1)C1CC1 [Compound 3172]	213 to 216 °C
C[C@@H](OC(=O)Nc1ccc(-c2c(C#N)c3ccc(OC(=O)NCCc4ccccc4)cc3n2C2CCC2)cc1)C1CC1 [Compound 3173]	203 to 206 °C
CC(C)NC(=O)Oc1ccc2c(C#N)c(-c3ccc(NC(=O)O[C@H](C)C4CC4)cc3)n(C3CCC3)c2c1 [Compound 3174]	202 to 205 °C
CC(C)(C)OC(=O)NS(=O)(=O)Nc1ccc(-c2c(C#N)c3ccc(N4CCOCC4)cc3n2C2CC2)cc1 [Compound 3175]	171 to 175 °C
N#C/N=C(/Nc1ccc(-c2c(C#N)c3ccc(OC4CCOCC4)cc3n2C2CCC2)cc1)NC1CCCCC1 [Compound 3176]	209 to 211 °C
N#Cc1c(-c2ccc(Nc3nc(C(F)(F)F)cs3)cc2)n(C2CCC2)c2cc(OC3CCOCC3)ccc12 [Compound 3177]	250 to 252 °C
CC(C)n1c(-c2ccc(NS(=O)(=O)Cc3ccc(C(F)(F)F)cc3)cc2)c(C#N)c2ccc(OC(F)F)cc21 [Compound 3178]	224 to 225 °C
CC(C)(C)c1csc(Nc2ccc(-c3c(C#N)c4ccc(Oc5ncccn5)cc4n3C3CCC3)cc2)n1 [Compound 3179]	240 to 241 °C
CCCS(=O)(=O)Nc1ccc(-c2c(C#N)c3ccc(Oc4nccnc4C#N)cc3n2C2CCC2)cc1 [Compound 3181]	218 to 220 °C
CCS(=O)(=O)Nc1ccc(-c2c(C#N)c3ccc(OC4CCS(=O)(=O)CC4)cc3n2C2CCC2)cc1 [Compound 3184]	259 to 264 °C
N#Cc1c(-c2ccc(NS(=O)(=O)C3CC3)cc2)n(C2CCC2)c2cc(OC3CCS(=O)(=O)CC3)ccc12 [Compound 3185]	279 to 285 °C
C[C@@H](OC(=O)Nc1ccc(-c2c(C#N)c3ccc(OC4CCS(=O)(=O)CC4)cc3n2C2CCC2)cc1)C1CC1 [Compound 3186]	226 to 231 °C
C[C@@H](OC(=O)Nc1ccc(-c2c(C#N)c3ccc(OC4CCS(=O)(=O)CC4)cc3n2C2CCC2)cc1)C(F)(F)F [Compound 3187]	243 to 249 °C
N#Cc1c(-c2ccc(N(CCF)c3nc(C(F)(F)F)cs3)cc2)n(C2CCC2)c2cc(OCCF)ccc12 [Compound 3188]	137 to 138 °C

Continued, values first:

melting point	SMILES
241 to 245 °C	N#Cc1c(-c2ccc(Nc3nc(C(F)(F)F)cs3)cc2)n(C2CCC2)c2cc(Oc3ncccn3)ccc12 [Compound 3189]
227 to 229 °C	C[C@@H](OC(=O)Nc1ccc(-c2c(C#N)c3ccc(Oc4nccnc4C#N)cc3n2C2CCC2)cc1)C1CC1 [Compound 3191]
232 to 236 °C	CCn1c(-c2ccc(N3CCCS3(=O)=O)cc2)c(C#N)c2ccc(Oc3nccnc3C#N)cc21 [Compound 3196]
279 to 282 °C	CCCS(=O)(=O)Nc1ccc(-c2c(C#N)c3ccc(N4CCCC4=O)cc3n2C2CCC2)cc1 [Compound 3198]
205 to 210 °C	C[C@@H](OC(=O)Nc1ccc(-c2c(C#N)c3ccc(OC4CCS(=O)(=O)CC4)cc3n2C2CC2)cc1)C1CC1 [Compound 3199]
181 to 184 °C	CCCS(=O)(=O)Nc1ccc(-c2c(C#N)c3ccc(Oc4ncccc4C(F)(F)F)cc3n2C2CCC2)cc1 [Compound 3201]
240 to 242 °C	CCCS(=O)(=O)Nc1ccc(-c2c(C#N)c3ccc(-c4cnccc4OC)cc3n2C2CCC2)cc1 [Compound 3202]
241 to 242 °C	CCCS(=O)(=O)Nc1ccc(-c2c(C#N)c3ccc(-c4ccnn4C)cc3n2C2CCC2)cc1 [Compound 3203]
199 to 201 °C	Cc1csc(Nc2ccc(-c3c(C#N)c4ccc(OCCF)cc4n3C3CCC3)cc2)n1 [Compound 3205]
234 to 236 °C	N#Cc1c(-c2ccc(Nc3nc(-c4ccc(F)cc4)cs3)cc2)n(C2CCC2)c2cc(OCCF)ccc12 [Compound 3206]
116 to 118 °C	N#Cc1c(-c2ccc(Nc3nc(C(F)(F)F)cs3)cc2)n(C2CCC2)c2cc(OCCF)ccc12 [Compound 3207]
189 to 191 °C	N#Cc1nccnc1Oc1ccc2c(C#N)c(-c3ccc(NS(=O)(=O)NCC4CC4)cc3)n(C3CC3)c2c1 [Compound 3211]
224 to 226 °C	CC(C)Nc1ccc(-c2c(C#N)c3ccc(Oc4nccnc4C#N)cc3n2C2CC2)cc1 [Compound 3212]
195 to 197 °C	CC(C)Nc1ccc(-c2c(C#N)c3ccc(Oc4ncccc4C#N)cc3n2C2CC2)cc1 [Compound 3213]
260 to 271 °C	CC(C)n1c(-c2ccc(N3CCCCS3(=O)=O)cc2)c(C#N)c2ccc(N3CCOCC3)cc21 [Compound 3215]
251 to 256 °C	N#Cc1c(-c2ccc(N3CCCCS3(=O)=O)cc2)n(C2CC2)c2cc(Oc3ncccn3)ccc12 [Compound 3216]
212 to 223 °C	N#Cc1c(-c2ccc(N3CCCCS3(=O)=O)cc2)n(C2CCC2)c2cc(Oc3ncccn3)ccc12 [Compound 3217]
180 to 187 °C	N#Cc1c(-c2ccc(N3CCCCS3(=O)=O)cc2)n(C2CCC2)c2cc(OC3CCOCC3)ccc12 [Compound 3218]
187 to 196 °C	N#Cc1c(-c2ccc(N3CCCCS3(=O)=O)cc2)n(C2CCC2)c2cc(Oc3cnccn3)ccc12 [Compound 3220]
249 to 250 °C	CCOc1ccc2c(C#N)c(-c3ccc4c(c3)CCC(=O)N4)n(C3CCC3)c2c1 [Compound 3221]
233 to 235 °C	CC1CCc2cc(-c3c(C#N)c4ccc(Oc5ncccn5)cc4n3C3CCC3)ccc2NC1=O (centres unmarked) [Compound 3222]
250 to 251 °C	CCn1c(-c2ccc(N3CCCCCC3=O)cc2)c(C#N)c2ccc(OC(C)C)cc21 [Compound 3223]
178 to 180 °C	CCCS(=O)(=O)Nc1ccc(-c2c(C#N)c3ccc(Oc4nccnc4C#N)cc3n2CC2CC2)cc1 [Compound 3224]
194 to 197 °C	CC(C)CS(=O)(=O)Nc1ccc(-c2c(C#N)c3ccc(Oc4nccnc4C#N)cc3n2CC2CC2)cc1 [Compound 3225]
